Data published in patent publication US20260000496A1, “MATERIALS AND METHODS FOR DRUG-INDUCED GINGIVAL OVERGROWTH” (Optimed Technology, Inc., priority 2019, published 2026).

Assays:
[1] = tested on: Collagen type I alpha 1 (Col1a1); assay: Collagen (Col1a1) expression in Human Oral Fibroblasts, QPCR; assay type: cell-based; details: fibroblasts treated with TGF-β, FIG. 1
Experimental: (§1) Cell Culture. Normal human oral keratinocytes (NOKSI) and fibroblast (HOF) cells were maintained in Dulbecco […] Eagle's medium (Sigma-Aldrich, St. Louis, MO, USA) supplemented with 10% fetal bovine serum (Atlas Bio-logicals, Fort Collins, CO, USA) and 100 units/mL penicillin and 100 μg/mL streptomycin (LifeTechnologies, Carlsbad, CA, USA). Cells were grown in incubator at 37° C. in a humidified chamber with 5% CO2.
Human Oral Fibroblasts (HOF) cells were seeded in 60 mm plates with a density of 2.5×10^4/cm^2 and treated with condition (CM) media collected from Oral Keratinocytes containing LPS (10 μg/ml), CSA (10 μg/ml), Phenytoin (10 μg/ml), or Folic acid (10 μg/ml) and incubated for 24 hours. The Collagen type I alpha 1 (Col1a1) gene expression was determined by QPCR. HOF cells were treated with rTGF-β, SB-431542 (SB), rTNF-α, or TNF-α inhibitor (TNF-α inh). Quantitative real-time PCR results showing the expression of Col1a1 in HOF cells after the treatment. (p<0.05).

[2] = tested on: MyD88; assay: Western blot of MyD88 in oral keratinocytes; assay type: cell-based, human; details: treated with CsA and LPS to simulate the disease, FIG. 35
Experimental: as §1
Drugs treatment in cell culture. The cells were treated alone or with different combination of lipopolysaccharide, cyclosporine, phenytoin, and folic acid. All of them were purchased from Sigma-Aldrich (St. Louis, MO, USA). Each of them were used from 0 μg/ml to 40 μg/ml and the optimum concentration were found 10 μg/ml.
Western blot analysis. Cells were seeded in 60 mm plates with a density of 5×10^5 cells per plate and washed briefly with Dulbecco's phosphate-buffered saline (Gibco, Waltham, MA, USA). Whole cell lysates were prepared using RIPA lysis buffer containing protease inhibitor cocktail (Sigma-Aldrich). Total protein concentration was determined using the BCA reagent (Pierce, Waltham, MA, USA). 20 μg of total protein were resolved on sodium dodecyl sulfate-polyacrylamide gel electrophoresis and transferred to polyvinylidenedifluoride membrane and immunoblotted. The blots were incubated for 1 h in 1% bovine serum albumin (BSA) (Sigma-Aldrich) to block the non-specific bindings followed by over-night incubation in primary antibodies (MyD88 and pP65 from Cell Signaling Technology, and human LITAF ThermoFisher Sigma) at 4° C. on shaker. Next day, blots were washed for three times (10 min each) in Tris-buffered saline containing 1% Tween20 (TBST) followed by incubation with secondary antibody (Goat anti-rabbit IgG HRP) with 1:10,000 dilution for 1 h. Following washes, bands were visualized using gel documentation Imaging Systems (BioRad). The band intensities were quantified using software ImageJ (NIH, USA) and relative protein levels were normalized by β-actin (Cell Signaling). To perform the western blot of animal tissue samples, the gingival tissues were collected from both BABLB/c and C57BL/6 mice studies. The soft tissues were separated from the mandibular bone and then crunched. The Bradford assay was performed to measure the protein concentration of each sample. After normalization, 20 μg of whole tissue protein lysate were proceeded for western blot analysis.

Substance | collagen expression in fibroblasts [1] | MyD88 expression in human oral keratinocytes after disease-simulating treatment [2]
TGF-β | induce collagen expression | 
Lipopolysaccharide |  | robustly induce MyD88 expression
